Values of other authors as cited in patent US8691277B2, “Long acting sustained-release formulation containing dopamine receptor agonist and the preparation method thereof” (Shandong Luye Pharmaceutical Co., Ltd., priority 2004, dated 2014).

Tests used:
[1] = in vivo
[2] = in vivo, po

Row | half-life [1] | bioavailability [2] | SMILES
1 | only a couple of hours |  | CCCN[C@H]1CCc2nc(N)sc2C1 [pramipexole]
2 | only a couple of hours | 1-5% | CCCN(CCc1cccs1)[C@H]1CCc2c(O)cccc2C1 [rotigotine]
